Results reported in ChEMBL document CHEMBL1135859, “Indinavir analogues with blocked metabolism sites as HIV protease inhibitors with improved pharmacological profiles and high potency against PI-resistant viral strains” (Bioorg Med Chem Lett, 2002).
pIC50: −log10 of the molar value.

How the values were obtained:
MT4 = assay: Concentration required to inhibit the spread of viral infection in MT-4 human T-lymphoid cells infected by the NL4-3 virus; assay type: functional; conditions: read-out: CIC95
[1] = biological target: T1, Human immunodeficiency virus type 1 protease (Human immunodeficiency virus 1, UniProt Q72874); assay: Inhibitory concentration required to inhibit cleavage of a substrate by the wild-type HIV-1 Protease
[2] = test system: Human immunodeficiency virus 1; assay: Concentration required to control the spread of HIV mutant strain V-18C; assay type: functional; conditions: read-out: CIC95
[3] = Bioavailability in dog; assay type: ADME, organism-based, Canis lupus familiaris; conditions: in vivo
[4] = biological target: T1, Human immunodeficiency virus type 1 protease; assay: Inhibitory concentration required to inhibit cleavage of a substrate by the wild-type HIV-1 protease enzyme
[5] = test system: Human immunodeficiency virus 1; assay: Concentration required to control the spread of HIV mutant strain Q-60C; assay type: functional; conditions: read-out: CIC95
[6] = Area under curve in dogs; assay type: ADME, organism-based, Canis lupus familiaris; conditions: dog, in vivo
[7] = Maximum concentration was determined; assay type: ADME, organism-based, Canis lupus familiaris; conditions: dog, in vivo
[8] = test system: Human immunodeficiency virus 1; assay: Concentration required to control the spread of HIV mutant strain 4X virus; assay type: functional; conditions: read-out: CIC95
[9] = test system: Human immunodeficiency virus 1; assay: Concentration required to control the spread of HIV mutant strain K-60C; assay type: functional; conditions: read-out: CIC95
[10] = Half life in dogs; assay type: ADME, organism-based, Canis lupus familiaris; conditions: dog, in vivo
[11] = test system: Human immunodeficiency virus 1; assay: (§1) Concentration required to control the spread of HIV mutant strain WT; assay type: functional; conditions: read-out: CIC95
[12] = Area under curve was determined; assay type: ADME, organism-based, Canis lupus familiaris; conditions: dog, in vivo
[13] = Half life was determined; assay type: ADME, organism-based, Canis lupus familiaris; conditions: dog, in vivo
[14] = Bioavailability; assay type: ADME, organism-based, Canis lupus familiaris; conditions: dog, in vivo
[15] = test system: Human immunodeficiency virus 1; assay: as §1; conditions: Human immunodeficiency virus 1, read-out: CIC95

SMILES	IC95 (MT4) [nM]	pIC50 [1]	IC95 [2] [nM]	bioavailability [3] [%]	pIC50 [4]	IC95 [5] [nM]	AUC [6] [µM·h]	Cmax [7] [µM]	IC95 [8] [nM]	IC95 [9] [nM]	half-life [10] [min]	IC95 [11] [nM]	AUC [12] [µM·h]	half-life [13] [min]	bioavailability [14] [%]	IC95 [15] [nM]
CC(C)(C)NC(=O)[C@@H]1CN(C(C)(C)c2cccnc2)CCN1C[C@@H](O)C[C@@H](Cc1ccccc1)C(=O)N[C@H]1c2ccccc2C[C@H]1O	50	8.94	–	–	–	–	–	–	–	–	–	–	–	–	–	–
CC(C)(C)NC(=O)[C@@H]1CN(C(C)(C)c2cc3cnccc3o2)CCN1C[C@@H](O)C[C@@H](Cc1ccccc1)C(=O)N[C@H]1c2ccccc2OC[C@H]1O	< 8	–	250	81	10.12	250	7.43	8.85	31	500	62.4	< 8	–	–	–	–
CC(C)(C)NC(=O)[C@@H]1CN(C(C)(C)c2cc3cnccc3o2)CCN1C[C@@H](O)C[C@@H](Cc1ccccc1)C(=O)N[C@H]1c2ccccc2C[C@H]1O	15	9.82	> 1000	44.3	–	> 1000	14.1	16.6	625	> 1000	47	15	–	–	–	–
CC(C)(C)NC(=O)[C@@H]1CN(Cc2cc3cnccc3o2)CCN1C[C@@H](O)C[C@@H](Cc1ccccc1)C(=O)N[C@H]1c2ccccc2C[C@H]1O	15	9.64	–	–	–	–	–	–	–	–	–	–	–	–	–	–
CC(C)(C)NC(=O)[C@@H]1CN(Cc2cccnc2)CCN1C[C@@H](O)C[C@@H](Cc1ccccc1)C(=O)N[C@H]1c2ccccc2C[C@H]1O.O [INDINAVIR]	50	–	1500	–	–	> 1000	–	–	500	> 3000	–	–	12.5	38	71.6	50.5
